Measurements as given in the supplement of paper PMC8671470.

Tests used:
Test in all cases: cell viability (% survival relative to DMSO control, bortezomib = 0%); higher = less cytotoxic
Settings in all cases: 72 h
BV-173 = test system: BV-173
Method in brief: (§1)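 Percent survival figures are means of duplicate wells. They were obtained by CellTiter-Glo luminescence after 10 AML and 5 CML cell lines spent 72 h at 37 °C with 5% CO2 in 384-well plates with compounds at 1, 10, 100, 1000 or 10000 nM. Vehicle was set to 100% and a 10 µM positive control to 0%.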

K-562 = test system: K-562
Method in brief: as §1

MV4-11 = test system: MV4-11
Method in brief: as §1

Mono-Mac-6 = test system: Mono-Mac-6
Method in brief: as §1

| SMILES | cell viability (BV-173; 1 nM) [%] | cell viability (BV-173; 10 nM) [%] | cell viability (BV-173; 100 nM) [%] | cell viability (BV-173; 1000 nM) [%] | cell viability (BV-173; 10000 nM) [%] | cell viability (K-562; 1 nM) [%] | cell viability (K-562; 10 nM) [%] | cell viability (K-562; 100 nM) [%] | cell viability (K-562; 1000 nM) [%] | cell viability (K-562; 10000 nM) [%] | cell viability (MV4-11; 1 nM) [%] | cell viability (MV4-11; 10 nM) [%] | cell viability (MV4-11; 100 nM) [%] | cell viability (MV4-11; 1000 nM) [%] | cell viability (MV4-11; 10000 nM) [%] | cell viability (Mono-Mac-6; 1 nM) [%] | cell viability (Mono-Mac-6; 10 nM) [%] | cell viability (Mono-Mac-6; 100 nM) [%] | cell viability (Mono-Mac-6; 1000 nM) [%] | cell viability (Mono-Mac-6; 10000 nM) [%] |
| --- | --- | --- | --- | --- | --- | --- | --- | --- | --- | --- | --- | --- | --- | --- | --- | --- | --- | --- | --- | --- |
| Cl.OC[C@H]1NC[C@@H](O)[C@@H](O)[C@@H]1O [1-Deoxymannojirimycin hydrochloride] | 111 | 83.1 | 96.9 | 103 | 102 | 93.7 | 70.4 | 104 | 103 | 91.6 | 102 | 92.2 | 99.3 | 105 | 80.8 | 108 | 89.9 | 109 | 87.2 | 96.2 |
| CCOC(=O)[C@@]1(CCCCCCOc2ccc(Cl)cc2)CO1 [Etomoxir] | 94.8 | 105 | 88.8 | 64.8 | 57.8 | 113 | 95.8 | 86.5 | 93.2 | 71.8 | 105 | 97.2 | 99 | 85.3 | 79.3 | 93.5 | 94.4 | 92.9 | 95.7 | 96.3 |
| O=C(O)c1cc2sccc2[nH]1 [4H-thieno[3,2-b]pyrrole-5-carboxylic acid] | 104 | 102 | 102 | 99.1 | 100 | 86.6 | 106 | 101 | 101 | 105 | 107 | 93 | 93.2 | 92.9 | 96.8 | 104 | 92.6 | 99.5 | 92.6 | 101 |
| CCCc1nn(C)c2c(O)nc(-c3cc(S(=O)(=O)N4CCN(C)CC4)ccc3OCC)nc12 [Sildenafil] | 87.4 | 106 | 94.4 | 109 | 92.1 | 91.1 | 93 | 94.9 | 110 | 103 | 99.6 | 95.1 | 101 | 98.8 | 119 | 87.9 | 110 | 100 | 110 | 105 |
| CN(C)c1nc(O)c2[nH]cnc2n1 [2-Dimethylamino-6-hydroxypurine] | 104 | 93 | 93.5 | 121 | 93.9 | 108 | 89.2 | 92.2 | 117 | 92 | 101 | 98.8 | 97.2 | 102 | 89.8 | 97.2 | 100 | 86.9 | 99.4 | 113 |
| CC(C)C[C@H](NC(=O)[C@@H](O)[C@H](N)Cc1ccccc1)C(=O)O [Ubenimex] | 97.5 | 110 | 90.8 | 78.9 | 99.9 | 111 | 102 | 113 | 89.6 | 102 | 100 | 103 | 109 | 99.8 | 143 | 99.5 | 116 | 96.4 | 83.1 | 90.1 |
| O=C1Oc2ccccc2C(=O)C1CC1C(=O)Oc2ccccc2C1=O (stereo not given) [Dicumarol] | 89.5 | 107 | 91.8 | 94.1 | 109 | 95.1 | 106 | 97.2 | 100 | 95.8 | 89.7 | 111 | 87 | 97.5 | 93.6 | 103 | 111 | 86.5 | 95.7 | 106 |
| O=C(c1ccc(OCCN2CCCCC2)cc1)c1c(-c2ccc(O)cc2)sc2cc(O)ccc12 [Raloxifene] | 93 | 95.9 | 98.2 | 107 | 92.7 | 99.7 | 99.3 | 98.5 | 98.8 | 77.3 | 93.9 | 102 | 85.4 | 93.3 | 58.9 | 109 | 95.2 | 107 | 104 | 77 |
| Cc1coc2c1C(=O)C(=O)c1c-2ccc2c(C)cccc12 [Tanshinone I] | 109 | 103 | 92 | 94 | 83.6 | 98.6 | 100 | 106 | 82.7 | 79.8 | 101 | 89.7 | 108 | 103 | 97.2 | 126 | 107 | 106 | 102 | 84.7 |
| c1ccc2c(c1)OCC(=C1NCCN1)O2 [Idazoxan] | 87.3 | 108 | 80.7 | 89.3 | 73.2 | 80 | 98.1 | 90.7 | 100 | 90.9 | 82.3 | 106 | 80.6 | 82.9 | 89.1 | 102 | 106 | 91.1 | 89.1 | 102 |
| CC(/C=C1\SC(=S)N(CC(=O)O)C1=O)=C\c1ccccc1 [Epalrestat] | 101 | 95.1 | 96.7 | 106 | 112 | 114 | 102 | 109 | 99.5 | 100 | 95.3 | 85.8 | 103 | 102 | 110 | 106 | 103 | 103 | 93.9 | 116 |
| C1CCc2nnc(C34CC5CC(CC(C5)C3)C4)n2CC1 [MERCK-544] | 107 | 66.3 | 85.7 | 94.7 | 92.2 | 109 | 117 | 89.3 | 103 | 129 | 97.8 | 100 | 102 | 87.3 | 106 | 95.9 | 100 | 93.3 | 97.7 | 96 |
| N[C@](CCCCB(O)O)(CCN1CCCCC1)C(=O)O [Arginase inhibitor 1] | 141 | 77 | 90.8 | 88.5 | 96.1 | 120 | 102 | 93.1 | 90.6 | 88.4 | 101 | 92.3 | 103 | 92.4 | 84.9 | 101 | 83.8 | 93.1 | 93.8 | 94.5 |
